# Source: patent US8252931B2, “Thiazolo[5,4-B]pyridine glucokinase activators” (Novartis AG, priority 2005, dated 2012)
# Target: T1, recombinant GST-GK (Homo sapiens, UniProt P35557)
# T1 sequence (P35557 1-465): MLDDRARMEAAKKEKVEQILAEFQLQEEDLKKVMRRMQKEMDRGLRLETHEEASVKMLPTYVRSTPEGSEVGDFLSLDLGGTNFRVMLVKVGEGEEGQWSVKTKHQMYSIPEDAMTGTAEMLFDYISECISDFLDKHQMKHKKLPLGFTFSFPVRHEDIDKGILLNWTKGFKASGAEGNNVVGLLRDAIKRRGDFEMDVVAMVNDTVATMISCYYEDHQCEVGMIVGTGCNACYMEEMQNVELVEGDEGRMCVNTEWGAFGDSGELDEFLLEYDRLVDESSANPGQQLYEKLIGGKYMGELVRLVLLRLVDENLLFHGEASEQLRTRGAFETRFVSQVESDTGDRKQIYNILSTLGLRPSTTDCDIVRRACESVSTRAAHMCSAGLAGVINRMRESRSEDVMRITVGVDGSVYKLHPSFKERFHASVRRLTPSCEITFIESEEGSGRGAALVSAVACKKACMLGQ
# Test: activation of recombinant GST-GK in vitro (primary enzyme assay)
# Type: biochemical
# Details: concentration of compound that produces a 50% increase in the activity of GK; read-out: EC50 in primary enzyme assay
# Description: For example, the glucokinase activation in vitro may be determined by measuring the activation of recombinant GST-GK by a compound of the present invention in the absence or the presence of GKRP, a 68,000 Da protein inhibitor of GK. In these assays, formation of glucose-6-phosphate is coupled directly to the formation of thio-NADH. GST-GK catalyzes the reaction of glucose and Mg-ATP to produce glucose-6-phosphate and ADP. Glucose-6-phosphate dehydrogenase (G6PDH) reduces thionicotinamide (thio-NAD) to thio-NADH. The assay measures the formation of thio-NADH at […].
# The basic GK assay components are as follows: 25 mM HEPES (pH 7.1), 25 mM KCl, 2.5 mM MgCl2, 1 mM ATP (Sigma A-5394), 1 mM DTT, 1 mM thio-NAD (Sigma T-7375), 80 units/mL G6PDH (Sigma G-5885), 10 mM glucose and 110 nM GST-GK. For assessing reversal of GK inhibition by GKRP, 20 μM Fructose-6-phosphate (F-6-P) and 370 nM recombinant GKRP are added to these assay components. Fructose-1-phosphate (F-1-P) at 1 μM is used as a control in the GK/GKRP assay. F-1-P reverses inhibition of GST-GK by GKRP.
# The assay is done in standard, 96-well, round-bottom plates (Corning) and the total assay volume is 25 μL. Test compounds are serially diluted into 100% DMSO and 0.5 μL of diluted compound in 100% DMSO is added to the assay plate. Assay reagents (24.5 μL) are added using a Zymark robotic platform. Buffer, containing HEPES, MgCl2, KCl, thio-NAD, G6PDH, glucose and GST-GK, are added (5 μL) using the Zymark 8-channel hand pipet. For the GK/GKRP assay, GKRP and F-6-P are also included. The reaction is then initiated by adding 19.5 μL of buffer containing HEPES, MgCl2, KCl, DTT and ATP using the Zymark Reagent Addition Station/Reagent Addition Module. The plates are read kinetically over 10 min at 25° C. using a SpectraMax Plus microplate spectrophotometer (Molecular Devices, Sunnyvale, Calif.) to monitor the increase in optical density at 405 nm. The GK activity in wells containing test compounds is compared with activity in DMSO control wells. The concentration of compound that produces a 50% increase in the activity of GK is calculated and expressed as EC50.
row,Compound,EC50
1,"COCCN(CCC(=O)O)S(=O)(=O)c1ccc([C@@H](CC2CCCC2)C(=O)Nc2nc3ccc(SC)nc3s2)cc1 [Example 4-42, 3-[{4-[(R)-2-Cyclopentyl-1-(5-methylsulfanyl-thiazolo[5,4-b]pyridin-2-ylcarbamoyl)-ethyl]-benzenesulfonyl}-(2-methoxy-ethyl)-amino]-propionic acid]",230 nM
2,"COCCN(CCC(=O)O)S(=O)(=O)c1ccc(C(CC2CCCC2)C(=O)Nc2nncs2)cc1 (stereo not drawn) [Example 2, 3-[{4-[2-Cyclopentyl-1-([1,3,4]thiadiazol-2-ylcarbamoyl)-ethyl]-benzene-sulfonyl}-(2-methoxy-ethyl)-amino]-propionic acid]",50000 nM
3,"COc1ccc(CN(CCC(=O)O)S(=O)(=O)c2ccc([C@@H](CC3CCCC3)C(=O)Nc3nc4ccc(OC)nc4s3)cc2)cc1 [Example 4-21, 3-[{4-[(R)-2-Cyclopentyl-1-(5-methoxy-thiazolo[5,4-b]pyridin-2-ylcarbamoyl)-ethyl]-benzenesulfonyl}-(4-methoxy-benzyl)-amino]-propionic acid]",920 nM
4,"COCCN(CCC(=O)O)S(=O)(=O)c1ccc(C(CC2CCCC2)C(=O)Nc2nc3cccnc3s2)cc1 (stereo not drawn) [Example 4-41, 3-[{4-[2-Cyclopentyl-1-(thiazolo[5,4-b]pyridin-2-ylcarbamoyl)-ethyl]-benzenesulfonyl}-(2-methoxy-ethyl)-amino]-propionic acid]",1200 nM
5,"COc1ccc2nc(NC(=O)[C@H](CC3CCCC3)c3ccc(S(=O)(=O)N(CCC(=O)O)Cc4cc5ccccc5o4)cc3)sc2n1 [Example 3, 3-(Benzofuran-2-ylmethyl-{4-[(R)-2-cyclopentyl-1-(5-methoxy-thiazolo[5,4-b]pyridin-2-ylcarbamoyl)-ethyl]-benzenesulfonyl}-amino)-propionic acid]",220 nM
6,"COCCOc1ccc2nc(NC(=O)[C@H](CC3CCCC3)c3ccc(S(=O)(=O)N(CCOC)CCC(=O)O)cc3)sc2n1 [Example 4-46, 3-[(4-{(R)-2-Cyclopentyl-1-[5-(2-methoxy-ethoxy)-thiazolo[5,4-b]pyridin-2-ylcarbamoyl]-ethyl}-benzenesulfonyl)-(2-methoxy-ethyl)-amino]-propionic acid]",220 nM
7,"COCCN(CCC(=O)O)S(=O)(=O)c1ccc([C@H](CC2CCCC2)C(=O)Nc2nc3ccc(Cl)nc3s2)cc1 [Example 4-51, 3-[{4-[(S)-1-(5-Chloro-thiazolo[5,4-b]pyridin-2-ylcarbamoyl)-2-cyclopentyl-ethyl]-benzenesulfonyl}-(2-methoxy-ethyl)-amino]-propionic acid]",44000 nM
8,"COc1ccc2nc(NC(=O)C(CC3CCCC3)c3ccc(S(=O)(=O)N(CC(=O)O)Cc4ccco4)cc3)sc2n1 (stereo not drawn) [Example 4-9, ({4-[2-Cyclopentyl-1-(5-methoxy-thiazolo[5,4-b]pyridin-2-ylcarbamoyl)-ethyl]-benzenesulfonyl}-furan-2-ylmethyl-amino)-acetic acid]",2400 nM
9,"COCCNC(=O)c1ccc2nc(NC(=O)[C@@H](CC3CCCC3)c3ccc(S(=O)(=O)N(CCOC)CCC(=O)O)cc3)sc2n1 [Example 4-60, 3-[(4-{(S)-2-Cyclopentyl-1-[5-(2-methoxy-ethylcarbamoyl)-thiazolo[5,4-b]pyridin-2-ylcarbamoyl]-ethyl}-benzenesulfonyl)-(2-methoxy-ethyl)-amino]-propionic acid]",6000 nM
10,"COc1ccc2nc(NC(=O)[C@H](CC3CCCC3)c3ccc(S(=O)(=O)N(CCC(=O)O)Cc4ccccc4)cc3)sc2n1 [Example 1, 3-(Benzyl-{4-[(R)-2-cyclopentyl-1-(5-methoxy-thiazolo[5,4-b]pyridin-2-ylcarbamoyl)-ethyl]-benzenesulfonyl}-amino)-propionic acid]",270 nM

# Same assay, conditions: concentration of compound that produces a 50% increase in the activity of GK; read-out: EC50 in the in vitro assay measuring the activation of recombinant GST-GK
row,Compound,EC50
1,"COc1ccc2nc(NC(=O)[C@H](CC3CCCC3)c3ccc(S(=O)(=O)N(CCC(=O)O)Cc4ccccc4)cc3)sc2n1 [Example 1, 3-(Benzyl-{4-[(R)-2-cyclopentyl-1-(5-methoxy-thiazolo[5,4-b]pyridin-2-ylcarbamoyl)-ethyl]-benzenesulfonyl}-amino)-propionic acid]",~271 nM

# Test system: DIO mice
# Test: glucokinase activation in vivo: oral glucose tolerance test in DIO mice
# Details: oral (po) dosing; different timepoints during the oral glucose tolerance test; statistically significant
# Description: The glucokinase activation in vivo may be determined as follows:
# Male C57BL mice (Jackson Lab, Bar Harbor, Me.) are housed 2 per cage in a reversed light cycle room (light on from 8:00 p.m. to 8:00 a.m.) and given access to food and water ad libitum. To induce DIO, the mice are given a high fat diet (D12492 with 60% caloric intake from fat, Research Diets, New Brunswick, N.J.) from 4 weeks of age and maintained on the diet before being used. The DIO mice are used at 25 weeks of age. On the day of the study, animals are fasted at 7:30 a.m. Body weight measurement and basal blood sample collection are conducted at 10:00 a.m. Plasma glucose values are then determined. Animals are assigned into five groups (n=7/group) with the means of plasma glucose matched among the groups. At 10:30 a.m. animals are dosed with vehicle (water) or compound in vehicle with a dose volume of 5 ml/kg. The test compound is given at 3, 10, 30, or 100 mg/kg. One hour after vehicle or compound dosing, a blood sample (at 0 min) is taken followed by an oral glucose tolerance test (OGTT) at 1 g/kg (20% glucose in water) and a dose volume of 5 ml/kg. […] Plasma glucose concentrations are determined using a glucose meter (Ascensia Elite, Bayer Corp., Mishawaka, Ind.). […] Plasma insulin levels are determined by Luminex assay using Mouse Endocrine Lincoplex kit (Linco Research, Inc., St. Charles, Mo.). […]
row,Compound,reductions in glucose
1,"COc1ccc2nc(NC(=O)[C@H](CC3CCCC3)c3ccc(S(=O)(=O)N(CCC(=O)O)Cc4ccccc4)cc3)sc2n1 [Example 1, 3-(Benzyl-{4-[(R)-2-cyclopentyl-1-(5-methoxy-thiazolo[5,4-b]pyridin-2-ylcarbamoyl)-ethyl]-benzenesulfonyl}-amino)-propionic acid]",38-53%
